Source: ChEMBL document CHEMBL1156431, “15-deoxyspergualin primarily targets the trafficking of apicoplast proteins in Plasmodium falciparum” (J Biol Chem, 2007)
Active and inactive are the calls of the source. No cut-off for these calls is given here.

Assays:
Plasmodium falciparum [1] = test: Inhibition of fatty acid synthesis in Plasmodium falciparum FCK2 trophozoites at 10 uM; type: functional, organism-based
Plasmodium falciparum [2] = test: TufA expression level in Plasmodium falciparum FCK2 first asexual cycle; type: functional, organism-based
Plasmodium falciparum [3] = test: Growth inhibition as apicoplast copy number of Plasmodium falciparum FCK2 at 100 nM by [3H]hypoxanthine uptake; type: functional
Plasmodium falciparum [4] = test: Inhibition of fatty acid synthesis in Plasmodium falciparum FCK2 trophozoites at 1 uM; type: functional, organism-based
Plasmodium falciparum [5] = test: Actin expression level in Plasmodium falciparum FCK2; type: functional, organism-based
Plasmodium falciparum [6] = test: Inhibition of fatty acid synthesis in late trophozoite Plasmodium falciparum FCK2 at 1 uM; type: functional, organism-based
Plasmodium falciparum [7] = test: Inhibition of spermidine transporter-mediated [3H]spermidine transport in Plasmodium falciparum FCK2 infected human red blood cells at 1 mM
Plasmodium falciparum [8] = test: Inhibition of protein synthesis in Plasmodium falciparum FCK2 by [35S]methionine uptake; type: functional, organism-based
Plasmodium falciparum [9] = test: Inhibition of fatty acid synthesis in Plasmodium falciparum FCK2 shizonts at 1 uM; type: functional, organism-based
Plasmodium falciparum [10] = test: Antimalarial activity against Plasmodium falciparum FCK2 by [3H]hypoxanthine uptake; type: functional, organism-based
[11] = Inhibition of putrescine transporter-mediated [3H]putrescine transport in human red blood cells; type: cell-based
Plasmodium falciparum [12] = test: Growth inhibition of Plasmodium falciparum FCK2 as apicoplast copy numbers at 1 uM in [3H]hypoxanthine uptake; type: functional
Plasmodium falciparum [13] = test: Antimalarial activity as reduced parasitaemia after 12 hrs against Plasmodium falciparum FCK2 second asexual cycle at 1 uM by [3H]hypoxanthine uptake; type: functional, organism-based
Plasmodium falciparum [14] = test: Inhibition of fatty acid synthesis in Plasmodium falciparum FCK2 ring stage at 1 uM; type: functional, organism-based
Plasmodium falciparum [15] = test: Antimalarial activity against Plasmodium falciparum FCK2 infected human erythrocytes with exogenous spermidine; type: functional, organism-based
[16] = Inhibition of putrescine transporter-mediated [3H]putrescine transport in Plasmodium falciparum FCK2 infected human red blood cells
Plasmodium falciparum [17] = test: Decreased processed NEAT protein FabG level in Plasmodium falciparum FCK2 first asexual cycle; type: functional, organism-based
[18] = Inhibition of spermidine transporter-mediated [3H]spermidine transport in human red blood cells; type: cell-based

Row | Compound | Activity (Plasmodium falciparum [1]) | Activity (Plasmodium falciparum [2]) | Activity (Plasmodium falciparum [3]) | Activity (Plasmodium falciparum [4]) | Activity (Plasmodium falciparum [5]) | Activity (Plasmodium falciparum [6]) | Activity (Plasmodium falciparum [7]) | IC50 (Plasmodium falciparum [8]) | Activity (Plasmodium falciparum [9]) | IC50 (Plasmodium falciparum [10]) | IC50 [11] | Activity (Plasmodium falciparum [12]) | Activity (Plasmodium falciparum [13]) | Activity (Plasmodium falciparum [14]) | Activity (Plasmodium falciparum [15]) | IC50 [16] | Activity (Plasmodium falciparum [17]) | IC50 [18]
1 | Oc1cc(Cl)ccc1Oc1ccc(Cl)cc1Cl | Active |  |  |  |  |  |  |  |  |  |  |  |  |  |  |  |  | 
2 | CCC[C@@H]1C[C@@H](C(=O)N[C@@H]([C@H]2O[C@H](SC)[C@H](O)[C@@H](O)[C@H]2O)[C@H](C)Cl)N(C)C1 [CLINDAMYCIN] |  | Active | 0.4 |  |  |  |  |  |  |  |  |  |  |  |  |  |  | 
3 | N=C(N)NCCCCCCC(=O)NC(O)C(=O)NCCCCNCCCN (centres undefined) [GUSPERIMUS] |  | inactive |  | inactive | inactive | inactive | inactive | 443 µM | Active | 0.148 µM | 924 µM | 0.13 | inactive | inactive | Active | 1120 µM | Active | 372 µM
